Data as given in patent US9765154B2, “Phosphohistidine analogs” (THE ROCKEFELLER UNIVERSITY, priority 2010, dated 2017).

Assay: ionization of the phosphonate group (pK values)
Type: physicochemical
Text: [drawing 33] it is isosteric with phosphorylated histidine. Further, the electrostatics of the phosphonoltriazolylalanine mimic those of phosphorylated Histidine. In particular, the phosphonate group of N-methyl-triazolylphosphonic acid is fully ionized at physiological pH (pK1=2.3 and pKA2=5.3), analogous to pHis.

N-methyl-triazolylphosphonic acid
pK1 of the phosphonate group: 2.3
pKA2 of the phosphonate group: 5.3
